Data reported in ChEMBL document CHEMBL4219117, “Chemical synthesis of an indomethacin ester prodrug and its metabolic activation by human carboxylesterase 1” (Bioorg Med Chem Lett, 2018).
One block for each molecule: values may come before it.

Legend:
[1] = molecular target: T1, Liver carboxylesterase 1 (Homo sapiens, UniProt P23141); assay: Prodrug activation assessed as human carboxylesterase 1b-mediated indomethacin formation by measuring intrinsic clearance per mg protein at 0.003125 to 0.10 mM after 30 to 180 mins by HPLC based Michaelis-Menten plot analysis; conditions: isolated protein, 100 µM
T1 sequence (P23141 whole entry): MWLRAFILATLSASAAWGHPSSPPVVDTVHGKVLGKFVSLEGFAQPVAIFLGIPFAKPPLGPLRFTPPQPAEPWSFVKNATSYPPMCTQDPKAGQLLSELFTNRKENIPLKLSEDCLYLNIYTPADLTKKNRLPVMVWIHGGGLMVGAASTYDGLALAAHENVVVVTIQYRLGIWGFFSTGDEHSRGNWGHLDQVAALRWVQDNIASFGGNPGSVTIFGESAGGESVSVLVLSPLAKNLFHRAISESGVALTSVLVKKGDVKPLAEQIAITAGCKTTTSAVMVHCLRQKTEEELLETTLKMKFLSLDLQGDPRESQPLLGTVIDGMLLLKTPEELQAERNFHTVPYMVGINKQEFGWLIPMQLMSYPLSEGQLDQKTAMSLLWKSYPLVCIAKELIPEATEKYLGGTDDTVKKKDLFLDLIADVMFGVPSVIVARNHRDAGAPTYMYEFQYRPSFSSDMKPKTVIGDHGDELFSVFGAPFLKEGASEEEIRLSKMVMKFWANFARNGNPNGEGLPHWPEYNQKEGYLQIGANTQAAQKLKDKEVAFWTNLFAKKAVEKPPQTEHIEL

[2] = molecular target: T1, Liver carboxylesterase 1; assay: Prodrug activation in human liver microsomes assessed as carboxylesterase 1-mediated indomethacin formation at 0.25 mM after 30 to 1440 mins by HPLC analysis; conditions: 250 µM
[3] = molecular target: T1, Liver carboxylesterase 1; assay: Prodrug activation in human intestine microsomes assessed as carboxylesterase 1-mediated indomethacin formation at 0.25 mM after 30 to 1440 mins by HPLC analysis; conditions: 250 µM
[4] = substrate: CCCCOC(=O)Cc1c(C)n(C(=O)c2ccc(Cl)cc2)c2ccc(OC)cc12; assay: (§1) Prodrug activation assessed as human carboxylesterase 1b-mediated indomethacin formation at 0.003125 to 0.10 mM after 30 to 180 mins by HPLC based Michaelis-Menten plot analysis
[5] = substrate: CC[C@@H](C)OC(=O)Cc1c(C)n(C(=O)c2ccc(Cl)cc2)c2ccc(OC)cc12; assay: as §1
[6] = substrate: CC[C@@H](OC(=O)Cc1c(C)n(C(=O)c2ccc(Cl)cc2)c2ccc(OC)cc12)c1ccccc1; assay: as §1
[7] = substrate: CCCCSC(=O)Cc1c(C)n(C(=O)c2ccc(Cl)cc2)c2ccc(OC)cc12; assay: as §1
[8] = substrate: COc1ccc2c(c1)c(CC(=O)OCC(C)C)c(C)n2C(=O)c1ccc(Cl)cc1; assay: as §1
[9] = substrate: COc1ccc2c(c1)c(CC(=O)OCC(C)(C)C)c(C)n2C(=O)c1ccc(Cl)cc1; assay: as §1
[10] = substrate: CC[C@H](OC(=O)Cc1c(C)n(C(=O)c2ccc(Cl)cc2)c2ccc(OC)cc12)c1ccccc1; assay: as §1
[11] = substrate: CC[C@H](C)OC(=O)Cc1c(C)n(C(=O)c2ccc(Cl)cc2)c2ccc(OC)cc12; assay: as §1

Molecule: COc1ccc2c(c1)c(CC(=O)OCC(C)(C)C)c(C)n2C(=O)c1ccc(Cl)cc1
- clearance [1]: 0.069 mL/min/mg
- Drug metabolism [2]: Metabolite_Detected
- Drug metabolism [3]: Metabolite_Notdetected

Molecule: CC[C@@H](OC(=O)Cc1c(C)n(C(=O)c2ccc(Cl)cc2)c2ccc(OC)cc12)c1ccccc1
- clearance [1]: 0.007 mL/min/mg
- Drug metabolism [2]: Metabolite_Notdetected
- Drug metabolism [3]: Metabolite_Notdetected

Molecule: CC[C@H](OC(=O)Cc1c(C)n(C(=O)c2ccc(Cl)cc2)c2ccc(OC)cc12)c1ccccc1
- clearance [1]: 0.0003 mL/min/mg
- Drug metabolism [2]: Metabolite_Notdetected
- Drug metabolism [3]: Metabolite_Notdetected

Molecule: COc1ccc2c(c1)c(CC(=O)OC(C)(C)C)c(C)n2C(=O)c1ccc(Cl)cc1
- Drug metabolism [2]: Metabolite_Notdetected
- Drug metabolism [3]: Metabolite_Notdetected

Molecule: CCCCSC(=O)Cc1c(C)n(C(=O)c2ccc(Cl)cc2)c2ccc(OC)cc12
- clearance [1]: 0.38 mL/min/mg
- Drug metabolism [2]: Metabolite_Detected
- Drug metabolism [3]: Metabolite_Detected

B1: Liver carboxylesterase 1 (Homo sapiens) (protein)
chain: T1 sequence (P23141 whole entry)
- Km [4]: 4.4 µM
- Vmax [4]: 0.00151 µmol/min
- Km [5]: 10.1 µM
- Vmax [5]: 4.9e-05 µmol/min
- Km [6]: 2.9 µM
- Vmax [6]: 2.1e-05 µmol/min
- Km [7]: 2.1 µM
- Vmax [7]: 0.0008 µmol/min
- Km [8]: 13.7 µM
- Vmax [8]: 0.00122 µmol/min
- Km [9]: 4.6 µM
- Vmax [9]: 0.000322 µmol/min
- Km [10]: 6.5 µM
- Vmax [10]: 2e-06 µmol/min
- Km [11]: 48.5 µM
- Vmax [11]: 0.000103 µmol/min

More lines, now with the values ahead:

- clearance [1]: 0.0021 mL/min/mg
- Drug metabolism [2]: Metabolite_Notdetected
- Drug metabolism [3]: Metabolite_Notdetected
Molecule: CC[C@H](C)OC(=O)Cc1c(C)n(C(=O)c2ccc(Cl)cc2)c2ccc(OC)cc12

- clearance [1]: 0.0048 mL/min/mg
- Drug metabolism [2]: Metabolite_Notdetected
- Drug metabolism [3]: Metabolite_Notdetected
Molecule: CC[C@@H](C)OC(=O)Cc1c(C)n(C(=O)c2ccc(Cl)cc2)c2ccc(OC)cc12

- clearance [1]: 0.34 mL/min/mg
- Drug metabolism [2]: Metabolite_Detected
- Drug metabolism [3]: Metabolite_Detected
Molecule: CCCCOC(=O)Cc1c(C)n(C(=O)c2ccc(Cl)cc2)c2ccc(OC)cc12

- clearance [1]: 0.089 mL/min/mg
- Drug metabolism [2]: Metabolite_Detected
- Drug metabolism [3]: Metabolite_Detected
Molecule: COc1ccc2c(c1)c(CC(=O)OCC(C)C)c(C)n2C(=O)c1ccc(Cl)cc1
